Data published in publication PMC10049421, “Anticancer Activity of Sunitinib Analogues in Human Pancreatic Cancer Cell Cultures under Normoxia and Hypoxia” (International Journal of Molecular Sciences, 2023).

How the values were obtained:
[1] = test system: PANC-1 cells; conditions: cited from earlier work
[2] = test system: BxPC-3 cell line; conditions: BxPC-3, concentration-dependent; cited from earlier work
[3] = test system: Capan-2 cell line; conditions: Capan-2, concentration-dependent; cited from earlier work
[4] = test system: MIA PaCa-2 cells; test: MTT cell viability assay, MIA PaCa-2; assay type: cell-based, human; conditions: for EC50: Homo sapiens, MIA PaCa-2, 72 h, 72 h, MTT
Description: (§1) Cell viability was tested using MTT (3-(4,5-dimethylthiazol-2-yl)-2,5-diphenyltetrazolium bromide; Sigma-Aldrich Co.) assay, as described previously Briefly, MIA PaCa-2 and PANC-1 cells were seeded in 96-well plates (Corning, NY, USA) in a volume of 100 μL (4000 cells/well). After 24 h incubation, the cells were treated with sunitinib and its derivatives. Only the medium without cells was used as a positive control, and the medium with 0.5% DMSO (Sigma-Aldrich Co.) served as a negative control. After 72 h the cells were incubated with the 0.5 mg/mL of MTT solution for the next 4 h. The coloured formazan product was dissolved in 100 μL DMSO. The absorbance was measured spectrophotometrically at wavelengths 570 and 630 nm. […] When determining the EC50 values of the compounds under hypoxic conditions, the growth medium was supplemented with 100 µM of CoCl2 solution (97%, Alfa Aesar, MA, USA).

[5] = test system: PANC-1 cells; test: MTT cell viability assay, PANC-1; assay type: cell-based, human; conditions: for EC50: Homo sapiens, PANC-1, 72 h, 72 h, MTT
Description: as §1

[6] = test system: human fibroblasts; test: MTT cell viability, human fibroblasts (selectivity); assay type: cell-based
[7] = test system: MIA PaCa-2 and PANC-1 cells; test: MTT cell viability, both pancreatic cancer cell lines; assay type: cell-based, human; conditions: for reduction of viability compared to sunitinib / reduction of cell viability: 1 µM; for reduction of viability compared to sunitinib: 72 h, both cancer cell lines; for reduction of cell viability: 72 h of incubation, at least one cell line; for activity on cell viability, comparison between cell lines: EC50 comparison MIA PaCa-2 vs PANC-1; for activity on cell viability, hypoxia compared with normoxia: EC50 comparison
Description: as §1

[8] = test system: MIA PaCa-2 cells; test: Clonogenic assay, MIA PaCa-2; assay type: cell-based, human; conditions: for number and area of colonies: MIA PaCa-2, higher concentration (90% of EC50), normoxia and hypoxia
Description: (§2) Compound effect on cell colony formation and growth was established by clonogenic assay, as previously published. […] Cells were incubated in a humidified atmosphere containing 5% CO2 at 37 °C and grown for 8 days. After incubation, the cells were rinsed with PBS and fixed with 10% formaldehyde, methanol-free (ThermoFisher Scientific, Waltham, MA, USA) solution for 20 min. Then the cells were rinsed with PBS two more times, and cell colonies were stained with 0.1% aqueous crystal violet solution (Sigma-Aldrich Co.) for 20 min, followed by rinses with sterile deionized water to remove the excess dye. Photos of colonies were taken using the G:BOX gel documentation system (Syngene International Ltd., Bengaluru, India) and Genesys software (Syngene International Ltd.). The number of colonies and their area were calculated using GeneTools colony and cell counting software (Syngene International Ltd.) according to the manufacturer’s instructions. Cell colony area and number in control groups were normalized to 100%. The percentage of drug-treated colony area and number were compared to the control.

[9] = test system: PANC-1 cells; test: Clonogenic assay, PANC-1; assay type: cell-based, human; conditions: for PANC-1 cell colony formation (number) compared to the control: 90% of EC50, normoxia; for number and area of colonies: PANC-1, higher concentration (90% of EC50), normoxia and hypoxia
Description: as §2

[10] = test system: MIA PaCa-2 cells; test: 'Wound healing' migration assay, MIA PaCa-2; assay type: cell-based, human; conditions: for inhibition of migration, hypoxia compared with normoxia: MIA PaCa-2
Description: (§3) Cell migration was tested by the ‘wound’ healing assay, as described elsewhere. Briefly, MIA PaCa-2 and PANC-1 cells were seeded into 24-well plates (Corning). MIA PaCa-2 at a density of 80,000 cells/well and PANC-1 at a density of 60,000 cells/well in 500 μL of medium and incubated in a humidified atmosphere containing 5% CO2 at 37 °C for 1 day. Then the monolayers were scratched with a sterile 100 μL pipette plastic tip in the centre of the well. The old cell medium is aspirated, the wells are rinsed with 400 μL phosphate-buffered saline (PBS, Gibco). […] Photos of ‘wounds’ were taken every 24 h for 3 days and the compound effect was evaluated by measuring the size of the “wound” area. Images were analysed by TScratch software (CSE Lab, Zurich, Switzerland).

[11] = test system: PANC-1 cells; test: 'Wound healing' migration assay, PANC-1; assay type: cell-based, human; conditions: for inhibition of migration, hypoxia compared with normoxia: PANC-1; for 'wound' area compared to the control: PANC-1, 0.35 μM
Description: as §3

[12] = test system: PANC-1 cells; design: method as in PMID 15202007; conditions: 10 μM; cited from earlier work
[13] = test system: PANC-1 cell monolayer; conditions: PANC-1, 1 μM, 24 h; cited from earlier work
[14] = MIA PaCa-2, hypoxia (100 µM CoCl2)
[15] = normoxia, higher concentrations (90% of EC50)

CN(C)C/C=C/C(=O)Nc1cc2c(Nc3ccc(F)c(Cl)c3)ncnc2cc1O[C@H]1CCOC1 [Afatinib]
cell colony formation ([1]; PANC-1, 0.25 to 2 μM): did not show an effect | cell colony formation [2]: inhibited cell colony formation | cell colony formation [3]: inhibited cell colony formation

Cc1nc(Nc2ncc(C(=O)Nc3c(C)cccc3Cl)s2)cc(N2CCN(CCO)CC2)n1 [Dasatinib]
number of PANC-1 cell colonies ([1]; 10 μM): significantly reduced

COc1ccc(C2CC(c3ccc4ccccc4c3)=NN2C2=NC(=O)/C(=C3/C(=O)Nc4ccc(Cl)cc43)S2)cc1 (stereo not drawn) [EMAC4001]
EC50 [4, 14]: 100 ± 13 nM | EC50 ([4]; MIA PaCa-2, normoxia): 113 ± 8 nM | times more active than sunitinib ([4]; MIA PaCa-2, hypoxia): 35 times | times more active than sunitinib ([4]; MIA PaCa-2, normoxia): 24 times | EC50 ([5]; PANC-1, hypoxia (100 µM CoCl2)): 80 ± 5 nM | EC50 ([5]; PANC-1, normoxia): 98 ± 3 nM | times more active than sunitinib ([5]; PANC-1, hypoxia): 47 times | times more active than sunitinib ([5]; PANC-1, normoxia): 36 times | selectivity towards cancer cells compared to human fibroblasts ([6]; MIA PaCa-2 and PANC-1 vs fibroblasts): most selective compound | reduction of viability compared to sunitinib [7]: statistically significantly stronger reduced | reduction of cell viability [7]: 90% | activity on cell viability, comparison between cell lines [7]: more active in the PANC-1 cell line | MIA PaCa-2 cell colony growth, hypoxia compared with normoxia [8]: stronger effect on the MIA PaCa-2 cell colony growth under hypoxia than normoxia | MIA PaCa-2 cell colony formation ([8]; 90% of EC50, normoxia): statistically significantly inhibited | number and size of cell colonies compared to sunitinib ([8]; MIA PaCa-2, 90% of EC50, normoxia and hypoxia): less of MIA PaCa-2 and PANC-1 cell colonies and they were smaller | number and area of colonies [8]: significantly reduced the number and area of colonies | PANC-1 cell colony formation (number) compared to the control [9]: inhibited the colony formation of PANC-1 cells | number and size of cell colonies compared to sunitinib ([9]; PANC-1, 90% of EC50, normoxia and hypoxia): less of MIA PaCa-2 and PANC-1 cell colonies and they were smaller | number and area of colonies [9]: significantly reduced the number and area of colonies | inhibition of migration, hypoxia compared with normoxia [10]: more than in normoxia | cell migration [10, 15]: inhibited cell migration | inhibition of migration, hypoxia compared with normoxia [11]: the effect was the opposite

COc1ccc(C2CC(c3ccc4ccccc4c3)=NN2C2=NC(=O)/C(=C3/C(=O)Nc4ccc(I)cc43)S2)cc1 (stereo not drawn) [EMAC4006]
reduction of viability compared to sunitinib [7]: statistically significantly stronger reduced | reduction of cell viability [7]: 90% | activity on cell viability, comparison between cell lines [7]: inhibited more efficiently the cell viability of the MIA PaCa-2 cell line | MIA PaCa-2 cell colony formation ([8]; 90% of EC50, normoxia): statistically significantly inhibited | PANC-1 cell colony formation (number) compared to the control [9]: inhibited the colony formation of PANC-1 cells | inhibition of migration, hypoxia compared with normoxia [10]: less than under normoxia | cell migration [10, 15]: inhibited cell migration | inhibition of migration, hypoxia compared with normoxia [11]: stronger under hypoxia than normoxia

COc1ccc(C2CC(c3ccc4ccccc4c3)=NN2C2=NC(=O)/C(=C3/C(=O)Nc4ccc(OC)cc43)S2)cc1 (stereo not drawn) [EMAC4007]
effect on viability of non-cancerous cells (human fibroblasts) [6]: significantly reduce the viability of non-cancerous cells | reduction of viability compared to sunitinib [7]: statistically significantly stronger reduced | reduction of cell viability [7]: 90%

COc1ccc(C2CC(c3ccc4ccccc4c3)=NN2C2=NC(=O)/C(=C3/C(=O)Nc4ccc(C)cc43)S2)cc1 (stereo not drawn) [EMAC4008]
reduction of viability compared to sunitinib [7]: statistically significantly stronger reduced | reduction of cell viability [7]: 90% | activity on cell viability, hypoxia compared with normoxia [7]: more active against both cell lines under hypoxia conditions | activity on cell viability, comparison between cell lines [7]: more active in the PANC-1 cell line | MIA PaCa-2 cell colony growth, hypoxia compared with normoxia [8]: stronger effect on the MIA PaCa-2 cell colony growth under hypoxia than normoxia | inhibition of migration, hypoxia compared with normoxia [11]: stronger under hypoxia than normoxia

COc1ccc(C2CC(c3ccc4ccccc4c3)=NN2C2=NC(=O)/C(=C3/C(=O)Nc4ccc(C(F)(F)F)cc43)S2)cc1 (stereo not drawn) [EMAC4009]
effect on viability of non-cancerous cells (human fibroblasts) [6]: significantly reduce the viability of non-cancerous cells | reduction of viability compared to sunitinib [7]: statistically significantly stronger reduced | reduction of cell viability [7]: 90%

COc1ccc(C2CC(c3cccs3)=NN2C2=NC(=O)/C(=C3/C(=O)Nc4ccc(I)cc43)S2)cc1 (stereo not drawn) [EMAC4017]
reduction of viability compared to sunitinib [7]: statistically significantly stronger reduced | reduction of cell viability [7]: 90% | MIA PaCa-2 cell colony growth, hypoxia compared with normoxia [8]: stronger effect on the MIA PaCa-2 cell colony growth under hypoxia than normoxia | MIA PaCa-2 cell colony formation ([8]; hypoxia): significantly reduced the MIA PaCa-2 cell colony formation | MIA PaCa-2 colony number compared to sunitinib ([8]; lower concentration (10% of EC50), hypoxia): stronger than sunitinib | inhibition of migration, hypoxia compared with normoxia [10]: less than under normoxia | inhibition of migration, hypoxia compared with normoxia [11]: stronger under hypoxia than normoxia

COc1cc2ncnc(Nc3ccc(F)c(Cl)c3)c2cc1OCCCN1CCOCC1 [Gefitinib]
reduction of viability of PANC-1 cells [12]: 78%

CCN(CC)CCNC(=O)c1c(C)[nH]c(/C=C2\C(=O)Nc3ccc(F)cc32)c1C [sunitinib, Sunitinib malate]
EC50 [4, 14]: 3500 ± 300 nM | EC50 ([4]; MIA PaCa-2, normoxia): 2670 ± 210 nM | decrease of PANC-1 cell viability ([5]; 3.5 μM): up to 50% | EC50 ([5]; PANC-1, hypoxia (100 µM CoCl2)): 3730 ± 210 nM | EC50 ([5]; PANC-1, normoxia): 3530 ± 210 nM | activity on cell viability, hypoxia compared with normoxia [7]: more active under normoxia than hypoxia conditions | activity on cell viability, comparison between cell lines [7]: inhibited more efficiently the cell viability of the MIA PaCa-2 cell line | MIA PaCa-2 cell colony formation ([8]; 90% of EC50, normoxia): statistically significantly inhibited | number and area of colonies [8]: significantly reduced the number and area of colonies | number and area of colonies [9]: significantly reduced the number and area of colonies | inhibition of migration, hypoxia compared with normoxia [10]: more under hypoxic conditions | cell migration ([10]; MIA PaCa-2, 10 and 90% of EC50, normoxia and hypoxia (except lower concentration under normoxia)): statistically significantly inhibited cell migration | inhibition of migration, hypoxia compared with normoxia [11]: more under hypoxic conditions | 'wound' area compared to the control ([11]; 24 h): no difference | 'wound' area compared to the control ([11]; 48 h and 72 h): significantly larger | cell migration ([11]; PANC-1, 10 and 90% of EC50, normoxia and hypoxia): statistically significantly inhibited cell migration | 'wound' area ([11]; PANC-1 monolayer, hypoxia, after 72 h): 68.81 ± 5.24% | change in 'wound' area compared to the control [13]: did not establish a significant difference
